According to ChEMBL document CHEMBL1201862, “PubChem BioAssay data set” (2004):
Activity calls are given as the source filed them.

Experiments:
[1] = biological target: Nuclear receptor subfamily 5 group A member 2 (Homo sapiens, UniProt O00482); format: functional, cell-based;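 also: HEK293T cells transfected with LRH-1 and a StAR promoter luciferase reporter; potency for inhibitors that lower LRH-1 driven reporter light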
Steroidogenic factor 1 = Steroidogenic factor 1 (Homo sapiens, UniProt Q13285); assay: Counterscreen for inverse agonists of the liver receptor homolog-1 (LRH-1; NR5A2): Luminescence-based cell-based high throughput dose response assay to identify inverse agonists of the Steroidogenic Factor 1 Nuclear Receptor (SF1; NR5A1).; format: functional
[2] = StAR promoter reporter inhibition counter-screen, dose response, counter-screen for LRH-1 inverse agonist project, cell-based, luminescence, luciferase reporter (AID 651969); format: functional
Interleukin-8 [3] = biological target: T1, Interleukin-8 (Homo sapiens, UniProt P10145); assay: Dose Response confirmation of uHTS small molecule hits for cystic fibrosis induced NFkb Inhibitors in a PAF-induced IL8 counterscreen.; format: functional; settings: read-out: IC50_Mean
T1 sequence (P10145 whole entry): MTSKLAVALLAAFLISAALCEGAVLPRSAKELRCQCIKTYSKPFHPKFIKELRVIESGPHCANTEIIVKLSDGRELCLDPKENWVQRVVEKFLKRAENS

Interleukin-8 [4] = biological target: T1, Interleukin-8; assay: Dose Response confirmation of uHTS small molecule hits for cystic fibrosis induced NFkb Inhibitors in a TNFa-induced IL8 counterscreen.; format: functional; settings: read-out: IC50_Mean
[5] = biological target: T2, Ubiquitin-conjugating enzyme E2 N (Homo sapiens, UniProt P61088); format: functional
T2 sequence (P61088 whole entry): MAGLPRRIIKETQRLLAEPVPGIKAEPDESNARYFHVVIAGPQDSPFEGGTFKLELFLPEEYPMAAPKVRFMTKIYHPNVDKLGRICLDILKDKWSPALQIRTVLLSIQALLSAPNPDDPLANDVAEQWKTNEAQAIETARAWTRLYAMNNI

[6] = biological target: T3, Small ubiquitin-related modifier 1 (Homo sapiens, UniProt P63165); assay: inhibitors of SUMO1 partner interactions, dose response, biochemical, FRET (AID 624383); format: functional; settings: read-out: IC50_Mean
T3 sequence (P63165 whole entry): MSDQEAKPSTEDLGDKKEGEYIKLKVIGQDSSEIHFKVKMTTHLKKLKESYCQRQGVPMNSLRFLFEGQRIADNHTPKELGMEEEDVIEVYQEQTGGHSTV

Bcl-2-related protein A1 = biological target: T4, Bcl-2-related protein A1 (Mus musculus, UniProt Q07440); format: functional;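 also: confirmatory dose–response counterscreen on Bfl-1, used to check hits from a UBC13 polyubiquitin inhibitor campaign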
T4 sequence (Q07440 whole entry): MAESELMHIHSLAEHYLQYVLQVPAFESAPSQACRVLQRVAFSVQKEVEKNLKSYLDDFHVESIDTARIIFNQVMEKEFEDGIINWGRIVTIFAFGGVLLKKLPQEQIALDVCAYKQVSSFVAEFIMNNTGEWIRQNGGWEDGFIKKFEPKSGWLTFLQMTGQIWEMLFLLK

[7] = biological target: T5, Apoptotic protease-activating factor 1 (Homo sapiens, UniProt O14727); assay: SAR analysis of small molecule inhibitors of Apaf-1 in a Fluorescent assay.; format: functional; settings: read-out: IC50_Mean
T5 sequence (O14727 whole entry): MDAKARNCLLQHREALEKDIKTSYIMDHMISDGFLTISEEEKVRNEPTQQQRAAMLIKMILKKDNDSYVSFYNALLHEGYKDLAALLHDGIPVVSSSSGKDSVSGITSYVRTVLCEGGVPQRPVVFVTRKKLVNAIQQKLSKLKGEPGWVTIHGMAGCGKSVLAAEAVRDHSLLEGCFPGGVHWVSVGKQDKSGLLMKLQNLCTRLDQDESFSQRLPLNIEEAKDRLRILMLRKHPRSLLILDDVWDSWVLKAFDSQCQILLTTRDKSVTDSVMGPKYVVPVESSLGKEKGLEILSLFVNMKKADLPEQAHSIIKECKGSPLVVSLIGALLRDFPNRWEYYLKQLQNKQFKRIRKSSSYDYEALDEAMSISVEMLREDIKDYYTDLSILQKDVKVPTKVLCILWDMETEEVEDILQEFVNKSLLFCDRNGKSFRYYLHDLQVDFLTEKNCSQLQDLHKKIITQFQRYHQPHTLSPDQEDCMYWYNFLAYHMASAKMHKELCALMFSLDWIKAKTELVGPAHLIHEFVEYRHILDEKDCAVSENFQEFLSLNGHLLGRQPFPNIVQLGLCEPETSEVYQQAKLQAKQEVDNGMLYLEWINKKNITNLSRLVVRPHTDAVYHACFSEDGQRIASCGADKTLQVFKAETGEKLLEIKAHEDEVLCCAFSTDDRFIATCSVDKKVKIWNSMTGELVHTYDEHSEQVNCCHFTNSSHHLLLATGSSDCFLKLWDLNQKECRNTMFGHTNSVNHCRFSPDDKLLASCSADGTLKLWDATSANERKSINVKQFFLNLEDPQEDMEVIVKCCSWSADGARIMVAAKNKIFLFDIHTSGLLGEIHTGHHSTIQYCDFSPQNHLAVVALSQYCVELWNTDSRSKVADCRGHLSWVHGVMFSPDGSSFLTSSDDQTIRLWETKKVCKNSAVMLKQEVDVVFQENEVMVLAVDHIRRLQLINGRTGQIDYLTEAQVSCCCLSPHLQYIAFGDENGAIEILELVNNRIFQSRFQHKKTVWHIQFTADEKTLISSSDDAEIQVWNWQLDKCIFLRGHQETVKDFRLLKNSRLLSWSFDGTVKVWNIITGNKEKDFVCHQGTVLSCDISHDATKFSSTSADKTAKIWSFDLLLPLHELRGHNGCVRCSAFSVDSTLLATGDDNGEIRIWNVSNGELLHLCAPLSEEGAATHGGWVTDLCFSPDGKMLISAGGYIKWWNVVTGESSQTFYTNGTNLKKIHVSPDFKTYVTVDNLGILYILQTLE

[8] = biological target: T3, Small ubiquitin-related modifier 1; assay: inhibitors of SUMO1 peptide binding, dose response, biochemical, fluorescence polarization, uHTS hits (AID 624382); format: functional; settings: read-out: IC50_Mean
[9] = biological target: T2, Ubiquitin-conjugating enzyme E2 N; format: functional; remark: listed apart in the source
[10] = biological target: Adenosylmethionine-8-amino-7-oxononanoate aminotransferase (Mycobacterium tuberculosis, UniProt P9WQ81); assay: Mycobacterium tuberculosis BioA enzyme inhibitor Measured in Biochemical System Using Plate Reader - 2163-02_Inhibitor_Dose_CherryPick_Activity.; format: functional, Mycobacterium tuberculosis UT205
BJ [11] = assay: cytotoxicity toward BJ-TERT-LT-ST fibroblasts, dose response, cell-based, RAS-independent, luminescence (AID 1935); format: functional; settings: Homo sapiens;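 also: BJ fibroblasts immortalized with TERT plus LT and ST oncogenes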
BJ [12] = assay: cytotoxicity toward Ras-transformed BJeLR fibroblasts, dose response, cell-based, alamar blue fluorescence, cherrypicked samples (AID 2631); format: functional; settings: Homo sapiens;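 also: confirmatory dose-response assay in RAS-dependent BJ fibroblasts engineered with TERT, LT and ST, with cytotoxicity read by fluorescence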
BJ [13] = assay: cytotoxicity toward BJ-TERT fibroblasts, dose response, cell-based, RAS-independent, luminescence (AID 1933); format: functional; settings: Homo sapiens
BJ [14] = assay: cells; format: functional, cell-based; settings: Homo sapiens
[15] = biological target: Photoreceptor-specific nuclear receptor (Homo sapiens, UniProt Q9Y5X4); format: functional, cell-based;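 also: CHO-S cells with Gal4-NCOR and VP16-NR2E3 two-hybrid luciferase reporter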
[16] = cytotoxicity toward DRD oncogenic fibroblasts, dose response, cell-based, non-viral oncogenic, luminescence (AID 1934); format: functional; settings: Homo sapiens
[17] = cytotoxicity in HEK-293T cells, dose response, cytotoxicity control for TCR NF-kB inhibitor project, luminescence, T-cell screen hits (AID 489026); format: functional, cell-based;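 also: cells exposed to compound about 14 hours before the viability readout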
[18] = biological target: T6, ATP-dependent translocase ABCB1 (Homo sapiens, UniProt P08183); assay: ABCG2 efflux pump inhibitor potency, dose response, Ig-MXP3 cells, JC-1, flow cytometry, set 2 (AID 504566); format: functional; settings: read-out: EC50_MICROM_;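 also: flow cytometry median green fluorescence of retained JC-1 dye; potency of efflux pump inhibition measured as rising substrate retention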
T6 sequence (P08183 whole entry): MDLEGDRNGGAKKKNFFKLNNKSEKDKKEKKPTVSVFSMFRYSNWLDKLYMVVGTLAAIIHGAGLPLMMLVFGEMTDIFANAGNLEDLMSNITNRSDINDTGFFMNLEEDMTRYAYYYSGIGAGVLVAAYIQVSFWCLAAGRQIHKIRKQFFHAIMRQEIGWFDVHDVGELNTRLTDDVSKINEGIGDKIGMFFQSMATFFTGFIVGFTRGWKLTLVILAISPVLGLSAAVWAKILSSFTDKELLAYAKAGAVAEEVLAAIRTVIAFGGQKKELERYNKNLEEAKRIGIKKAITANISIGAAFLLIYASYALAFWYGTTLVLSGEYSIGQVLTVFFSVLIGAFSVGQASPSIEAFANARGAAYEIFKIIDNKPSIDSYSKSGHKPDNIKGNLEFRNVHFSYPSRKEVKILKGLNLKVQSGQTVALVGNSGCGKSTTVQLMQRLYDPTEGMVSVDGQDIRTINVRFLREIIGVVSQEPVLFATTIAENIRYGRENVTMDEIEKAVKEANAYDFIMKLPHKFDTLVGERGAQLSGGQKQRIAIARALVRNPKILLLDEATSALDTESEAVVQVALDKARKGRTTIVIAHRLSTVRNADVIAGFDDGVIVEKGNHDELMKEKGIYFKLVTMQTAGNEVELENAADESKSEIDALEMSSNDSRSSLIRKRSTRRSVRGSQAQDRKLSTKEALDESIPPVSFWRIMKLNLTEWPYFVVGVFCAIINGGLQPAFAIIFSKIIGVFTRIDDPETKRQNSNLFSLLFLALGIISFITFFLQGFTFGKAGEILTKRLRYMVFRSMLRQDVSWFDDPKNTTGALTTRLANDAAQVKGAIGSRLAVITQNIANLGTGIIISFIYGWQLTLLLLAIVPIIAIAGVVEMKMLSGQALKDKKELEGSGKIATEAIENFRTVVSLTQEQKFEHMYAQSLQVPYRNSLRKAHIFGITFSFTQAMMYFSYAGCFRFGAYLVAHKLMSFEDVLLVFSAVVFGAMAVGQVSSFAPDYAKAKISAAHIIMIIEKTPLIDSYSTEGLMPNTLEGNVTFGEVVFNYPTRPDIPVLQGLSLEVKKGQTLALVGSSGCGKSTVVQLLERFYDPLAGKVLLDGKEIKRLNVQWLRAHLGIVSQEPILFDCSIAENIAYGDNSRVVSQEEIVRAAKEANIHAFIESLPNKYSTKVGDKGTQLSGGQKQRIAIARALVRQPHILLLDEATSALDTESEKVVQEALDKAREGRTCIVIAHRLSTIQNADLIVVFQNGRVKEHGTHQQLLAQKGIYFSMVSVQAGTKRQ

[19] = biological target: T6, ATP-dependent translocase ABCB1; assay: ABCB1 efflux inhibitor potency, dose response, Jurkat-DNR cells, JC-1, flow cytometry, set 2 (AID 504569); format: functional; settings: read-out: EC50_MICROM_;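 also: potency of pump inhibitors that raise cellular JC-1 green fluorescence up to the nicardipine level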
[20] = biological target: ATP-dependent molecular chaperone HSP82 (Candida albicans (strain WO-1) (Yeast), UniProt C4YTQ8); assay: loss of DOC-induced GRE-beta-galactosidase reporter signal, dose response, Hsp90 inhibitor project, S. cerevisiae, luminescence (AID 2400); format: functional, cell-based;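 also: beta-galactosidase luminescence from glucocorticoid response element reporter as proxy for Hsp90 function; inhibitor potency where signal loss means Hsp90 inhibition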
[21] = Luminescence Cell-Based Dose Retest to Confirm Inhibitors of Cancer Stem Cells. [Related pubchem assays (depositor defined):AID2717, AID2721]; format: functional; settings: Homo sapiens
[22] = NIH-3T3 fibroblast cytotoxicity, dose response, cytotoxicity control, cell-based, fluorescence, Alamar Blue, secondary assay (AID 2327); format: functional;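 also: NIH-3T3 mouse fibroblasts cultured with fluconazole at 8 µg/mL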
[23] = biological target: Serine/threonine-protein phosphatase (Candida dubliniensis (strain CD36 / CBS 7987 / NCPF 3949 / NRRLY-17841) (Yeast), UniProt B9W6M3); assay: calcineurin pathway inhibitors in yeast reporter, dose response, S. cerevisiae, CDRE-lacZ, luminescence, secondary (AID 2388); format: functional, cell-based;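 also: yeast reporter cells carrying a calcineurin-responsive lacZ construct stimulated with calcium chloride; luminescent beta-galactosidase reporter signal in whole cells rather than isolated phosphatase activity; potency for inhibition where a drop in reporter signal means calcineurin blockade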
[24] = C. albicans growth with fluconazole, confirmation, fluorescence, retest (AID 2467); format: functional, cell-based
Prothrombin = Prothrombin (Bos taurus, UniProt P00735); assay: thrombin inhibition, dose response, biochemical, fluorescence polarization, uHTS hits (AID 602369); format: functional
[25] = biological target: 72 kDa type IV collagenase (Homo sapiens, UniProt P08253); assay: Dose Response validation of uHTS RPN11 inhibitor hits using a MMP-2 Fluorescence assay.; format: functional
Sequence of 72 kDa type IV collagenase (P08253 whole entry): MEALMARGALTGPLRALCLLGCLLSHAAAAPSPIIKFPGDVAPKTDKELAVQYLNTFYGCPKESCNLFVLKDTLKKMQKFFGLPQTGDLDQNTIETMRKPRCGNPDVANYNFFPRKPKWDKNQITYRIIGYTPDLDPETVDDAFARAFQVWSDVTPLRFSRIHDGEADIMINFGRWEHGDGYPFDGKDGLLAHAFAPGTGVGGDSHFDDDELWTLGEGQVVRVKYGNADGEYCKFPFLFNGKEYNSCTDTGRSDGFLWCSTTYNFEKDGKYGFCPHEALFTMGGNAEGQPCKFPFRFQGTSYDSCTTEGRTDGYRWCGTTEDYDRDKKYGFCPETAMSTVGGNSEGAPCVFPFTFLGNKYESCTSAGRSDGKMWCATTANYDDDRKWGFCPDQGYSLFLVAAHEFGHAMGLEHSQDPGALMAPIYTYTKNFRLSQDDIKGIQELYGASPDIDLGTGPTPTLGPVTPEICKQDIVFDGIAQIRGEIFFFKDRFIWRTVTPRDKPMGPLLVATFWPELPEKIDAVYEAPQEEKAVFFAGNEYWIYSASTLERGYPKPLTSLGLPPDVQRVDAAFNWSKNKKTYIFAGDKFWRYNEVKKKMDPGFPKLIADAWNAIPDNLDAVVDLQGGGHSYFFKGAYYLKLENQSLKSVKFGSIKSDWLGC

Large T antigen = Large T antigen (Simian virus 40, UniProt P03070); format: functional, Betapolyomavirus macacae;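 also: Confirmatory-stage PubChem screen for compounds that inhibit SV40 T antigen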
[26] = biological target: 26S proteasome non-ATPase regulatory subunit 14 (Homo sapiens, UniProt O00487); assay: inhibition of proteasome subunit RPN11 – biochemical, fluorescence polarization, uHTS hits, confirmation (AID 602368); format: functional
Sequence of 26S proteasome non-ATPase regulatory subunit 14 (O00487 whole entry): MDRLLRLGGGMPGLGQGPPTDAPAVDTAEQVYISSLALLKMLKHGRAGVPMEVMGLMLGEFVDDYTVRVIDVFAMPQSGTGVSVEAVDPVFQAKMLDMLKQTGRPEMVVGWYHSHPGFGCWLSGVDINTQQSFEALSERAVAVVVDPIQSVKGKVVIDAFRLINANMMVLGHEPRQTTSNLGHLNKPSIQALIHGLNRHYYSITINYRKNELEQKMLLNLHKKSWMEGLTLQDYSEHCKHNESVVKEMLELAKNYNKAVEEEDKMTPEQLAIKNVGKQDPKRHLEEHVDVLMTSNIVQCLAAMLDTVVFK

[27] = tested on: Streptococcus sp. 'group A'; assay: growth inhibition of control SK(-) GAS strain, dose response, counter-screen for streptokinase expression inhibitor project, luminescence, kanamycin, BacTiterGlo, confirmation (AID 1900); format: functional, organism-based
cells = format: functional, cell-based; settings: HEK-CNG
Streptococcus = assay: Group A Streptococcus viability loss, dose response, counter-screen for streptokinase expression inhibitor project, luminescence, BacTiterGlo (AID 1915); format: functional, organism-based;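 also: potency for reduction of bacterial viability or growth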
Fatty acid synthase [28] = biological target: T7, Fatty acid synthase (Homo sapiens, UniProt P49327); assay: FAS thioesterase domain inhibitors, dose response, biochemical, endpoint fluorescence intensity, uHTS hits (AID 624327); format: functional;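 also: fluorescence from hydrolysis of an O-methyl fluorescein acyl ester substrate by the enzyme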
T7 sequence (P49327 whole entry, the tested form may be a part): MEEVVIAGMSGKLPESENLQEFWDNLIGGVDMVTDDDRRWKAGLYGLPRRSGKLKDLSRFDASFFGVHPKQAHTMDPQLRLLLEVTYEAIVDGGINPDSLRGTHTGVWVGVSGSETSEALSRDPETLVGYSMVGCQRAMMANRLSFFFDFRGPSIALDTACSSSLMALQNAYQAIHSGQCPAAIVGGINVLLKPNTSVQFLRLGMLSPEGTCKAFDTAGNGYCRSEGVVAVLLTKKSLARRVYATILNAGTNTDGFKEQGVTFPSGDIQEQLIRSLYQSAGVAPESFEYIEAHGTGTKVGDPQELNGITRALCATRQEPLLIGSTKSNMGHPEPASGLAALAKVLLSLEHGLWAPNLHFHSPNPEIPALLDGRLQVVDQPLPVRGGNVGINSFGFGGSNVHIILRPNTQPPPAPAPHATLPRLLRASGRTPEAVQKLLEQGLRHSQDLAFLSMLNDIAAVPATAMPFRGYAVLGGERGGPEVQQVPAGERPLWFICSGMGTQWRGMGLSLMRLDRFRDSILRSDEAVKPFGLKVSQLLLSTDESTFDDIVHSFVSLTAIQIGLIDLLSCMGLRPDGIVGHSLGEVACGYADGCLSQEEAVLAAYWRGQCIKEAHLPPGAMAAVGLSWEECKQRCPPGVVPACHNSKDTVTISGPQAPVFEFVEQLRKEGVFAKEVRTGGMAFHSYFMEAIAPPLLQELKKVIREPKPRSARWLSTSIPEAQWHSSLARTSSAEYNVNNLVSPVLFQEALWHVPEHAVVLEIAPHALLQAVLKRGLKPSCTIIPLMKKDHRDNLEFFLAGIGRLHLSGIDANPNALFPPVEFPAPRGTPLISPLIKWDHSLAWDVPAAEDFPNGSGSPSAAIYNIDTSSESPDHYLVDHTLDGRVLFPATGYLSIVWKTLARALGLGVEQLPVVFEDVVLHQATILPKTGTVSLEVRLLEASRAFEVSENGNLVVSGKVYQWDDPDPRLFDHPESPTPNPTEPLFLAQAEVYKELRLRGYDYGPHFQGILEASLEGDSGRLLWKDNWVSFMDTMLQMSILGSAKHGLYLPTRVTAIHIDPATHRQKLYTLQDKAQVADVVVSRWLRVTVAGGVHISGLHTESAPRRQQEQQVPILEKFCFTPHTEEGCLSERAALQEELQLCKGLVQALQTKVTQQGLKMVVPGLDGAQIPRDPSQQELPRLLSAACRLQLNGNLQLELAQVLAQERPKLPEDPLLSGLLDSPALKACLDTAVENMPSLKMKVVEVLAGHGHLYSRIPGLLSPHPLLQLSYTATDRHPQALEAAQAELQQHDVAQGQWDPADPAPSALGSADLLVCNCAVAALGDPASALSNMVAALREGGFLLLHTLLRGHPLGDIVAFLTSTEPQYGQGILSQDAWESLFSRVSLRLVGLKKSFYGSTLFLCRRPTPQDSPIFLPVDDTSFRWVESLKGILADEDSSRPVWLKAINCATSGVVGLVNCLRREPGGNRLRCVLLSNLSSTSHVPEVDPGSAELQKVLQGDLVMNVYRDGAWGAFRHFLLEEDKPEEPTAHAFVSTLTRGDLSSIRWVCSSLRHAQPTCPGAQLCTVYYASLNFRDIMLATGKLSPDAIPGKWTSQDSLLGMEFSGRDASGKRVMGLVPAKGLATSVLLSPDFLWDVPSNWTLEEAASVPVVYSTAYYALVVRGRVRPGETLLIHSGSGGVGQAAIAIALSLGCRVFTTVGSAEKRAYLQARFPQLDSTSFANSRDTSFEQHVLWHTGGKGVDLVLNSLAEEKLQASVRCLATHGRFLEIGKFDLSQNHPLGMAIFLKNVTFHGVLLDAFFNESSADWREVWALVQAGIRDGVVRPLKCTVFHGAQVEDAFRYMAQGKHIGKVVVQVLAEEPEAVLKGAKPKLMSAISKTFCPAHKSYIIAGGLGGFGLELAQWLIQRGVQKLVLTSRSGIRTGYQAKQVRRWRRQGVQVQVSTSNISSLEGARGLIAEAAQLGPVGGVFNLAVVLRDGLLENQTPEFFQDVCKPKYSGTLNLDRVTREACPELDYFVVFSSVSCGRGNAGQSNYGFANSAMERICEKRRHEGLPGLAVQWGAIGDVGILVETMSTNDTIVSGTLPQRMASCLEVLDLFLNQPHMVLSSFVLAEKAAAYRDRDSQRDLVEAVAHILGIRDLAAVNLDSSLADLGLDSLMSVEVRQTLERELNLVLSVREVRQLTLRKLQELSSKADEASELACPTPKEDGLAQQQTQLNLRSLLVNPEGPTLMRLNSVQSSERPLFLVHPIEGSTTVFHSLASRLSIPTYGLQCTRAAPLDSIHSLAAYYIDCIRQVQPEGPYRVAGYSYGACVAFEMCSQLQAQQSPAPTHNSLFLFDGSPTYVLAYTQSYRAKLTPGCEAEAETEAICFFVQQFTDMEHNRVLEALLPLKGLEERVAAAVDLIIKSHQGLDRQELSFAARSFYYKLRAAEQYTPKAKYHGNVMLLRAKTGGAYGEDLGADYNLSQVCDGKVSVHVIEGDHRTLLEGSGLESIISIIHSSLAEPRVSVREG

Fatty acid synthase [29] = biological target: T7, Fatty acid synthase; assay: FAS thioesterase domain inhibitors, dose response, biochemical, kinetic fluorescence intensity (AID 624326); format: functional;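 also: rate of fluorescence rise from hydrolysis of a fluorogenic O-methyl fluorescein ester substrate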
Galanin receptor type 3 = biological target: T8, Galanin receptor type 3 (Homo sapiens, UniProt O60755); assay: Fluorescence-based cell-based primary high throughput dose response assay to identify antagonists of the Galanin Receptor 3 (GalR3).; format: functional
T8 sequence (O60755 whole entry): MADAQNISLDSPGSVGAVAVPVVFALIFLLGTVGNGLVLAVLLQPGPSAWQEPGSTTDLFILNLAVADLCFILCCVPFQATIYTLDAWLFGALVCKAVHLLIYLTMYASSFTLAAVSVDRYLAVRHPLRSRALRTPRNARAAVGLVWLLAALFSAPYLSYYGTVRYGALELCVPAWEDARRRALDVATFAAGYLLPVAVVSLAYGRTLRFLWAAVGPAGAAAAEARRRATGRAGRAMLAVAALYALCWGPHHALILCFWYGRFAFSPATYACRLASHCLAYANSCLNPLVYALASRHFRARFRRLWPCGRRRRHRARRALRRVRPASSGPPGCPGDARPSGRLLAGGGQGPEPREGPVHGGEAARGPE

For `O=C(CSc1n[nH]c(-c2ccccc2)n1)Nc1ccc(F)cc1F`, the IC50 [1] was 3.99 µM (active), the IC50 (Steroidogenic factor 1) was 3.68 µM (active) and the IC50 [2] was 35.9 µM (inactive).
In the case of `CCN1CCN(Cc2ccc(NC(=O)c3ccc(C)c(NC(=O)N4CCNC4=O)c3)cc2C(F)(F)F)CC1`, the IC50 (Interleukin-8 [3]) is reported as 56.5 µM (inactive) and the IC50 (Interleukin-8 [4]) is reported as > 79 µM (inactive).
In the case of `CCN(CC)CCOC(=O)c1ccc(N/C=C(/C#N)c2nc(-c3ccc(OC)cc3)cs2)cc1`, the IC50 [5] is reported as 4.3 µM (active), the IC50 [6] is reported as 5.97 µM (active) and the IC50 (Bcl-2-related protein A1) is reported as 2.99 µM (active). The IC50 [7] was 9.94 µM (active), the IC50 [8] was > 66.6 µM (inactive) and the IC50 [9] was 4.88 µM (active).
With `COc1ccc(N2C(=O)CC3(CC(c4ccc(F)cc4)=NO3)C2=O)cc1` (stereo not given) the IC50 [7] was 58.3 µM (active).
For `O=C(N[C@@H]1CC[C@H](CCn2cc(-c3cccnc3)nn2)O[C@@H]1CO)c1ccccc1F`, the AC50 [10] was 6.17 µM (active).
For `Cc1cccc(NS(=O)(=O)c2ccc(-c3cnc(C4CC4)o3)cc2)c1C`, the EC50 (BJ [11]) was 2.88 µM (inconclusive), the EC50 (BJ [12]) was < 0.104 µM (active) and the EC50 (BJ [13]) was 2.67 µM (active). The EC50 (BJ [14]) was 2.51 µM (active), the IC50 [15] was 6.35 µM (active) and the EC50 [16] was 2.74 µM (inconclusive). The IC50 [17] was 67.5 µM (inactive).
With `O=C(c1ccco1)N1CCN(c2cc(Cc3ccccc3)nc3cc(-c4cccc(Cl)c4)nn23)CC1` the EC50 [18] was 0.8 µM (active) and the EC50 [19] was 4.21 µM (active).
In the case of `CC/C(=N/NC(=O)c1ccccc1O)c1c(C)nn(-c2ccccc2)c1O`, the EC50 [20] is reported as > 150 µM (inactive), the AC50 [21] is reported as 3.29 µM (active) and the EC50 [22] is reported as 39 µM (active). The EC50 [23] was > 180 µM (inactive) and the EC50 [24] was 0.114 µM (active).
With `Cc1cc(C(=O)c2cccs2)c(N)s1` the IC50 (Prothrombin) was 28.2 µM (active), the IC50 [25] was 32.7 µM (active) and the IC50 (Large T antigen) was 51.8 µM (active). The IC50 [26] was 20.5 µM (active).
For `COc1cc([N+](=O)[O-])cc(/C=N/NC(=O)c2cncc(Br)c2)c1O`, the IC50 (Prothrombin) was 39.1 µM (active), the IC50 [25] was 12.5 µM (active) and the EC50 [27] was 1.85 µM (active). The EC50 (cells) was > 29.9 µM (inactive), the EC50 (Streptococcus) was 1.02 µM (active) and the IC50 (Fatty acid synthase [28]) was 20 µM (active). For the same compound, the IC50 [26] was 49.5 µM (active), the IC50 (Fatty acid synthase [29]) was 10.2 µM (active) and the IC50 (Galanin receptor type 3) was > 9.97 µM (active).
